Values of other authors, collected in patent publication US6150391A, “Diazabicyclo-octane derivatives as 5-HT receptor ligands” (Merck Sharp & Dohme Ltd., priority 1996, dated 2000).

Key:
[1] = therapeutic doses
[2] = test system: human 5-HT1D.sbsb.α and 5-HT1D.sbsb.β receptor subtypes; conditions: cf WO-A-91/17174, Table 1

SMILES: CNS(=O)(=O)Cc1ccc2[nH]cc(CCN(C)C)c2c1 [sumatriptan]
- adverse events on administration to humans [1]: certain adverse cardiovascular events
- discrimination between the human 5-HT1D.sbsb.α and 5-HT1D.sbsb.β receptor subtypes [2]: barely discriminates
